Test results: ChEMBL document CHEMBL1201862, “PubChem BioAssay data set” (2004)
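How tested: cells in 96-well plates exposed to compound for 48 hours at five concentrations. At the GI50, growth is halved.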 The source made the active and inactive calls. Rule as the data show it: active = GI50 up to about 1.1 µM and inactive = higher.

What was measured:
Test in all cases: inhibition of tumour cell growth, NCI panel, 48 h
UACC-62 = system: UACC-62
SN12C = system: SN12C
MOLT-4 = system: MOLT-4
EKVX = system: EKVX
OVCAR-5 = system: OVCAR-5
HCT-15 = system: HCT-15
786-0 = system: 786-0
DMS-114 = system: DMS-114
SK-MEL-2 = system: SK-MEL-2
UACC-257 = system: UACC-257
NCI-H522 = system: NCI-H522
SK-MEL-28 = system: SK-MEL-28
SK-OV-3 = system: SK-OV-3
U-251 = system: U-251
A498 = system: A498
HOP-92 = system: HOP-92
MDA-MB-435 = system: MDA-MB-435
Hs-578T = system: Hs-578T
DU-145 = system: DU-145
BT-549 = system: BT-549

| Structure (SMILES) | GI50 (UACC-62) | GI50 (SN12C) | GI50 (MOLT-4) | GI50 (EKVX) | GI50 (OVCAR-5) | GI50 (HCT-15) [µM] | GI50 (786-0) | GI50 (DMS-114) | GI50 (SK-MEL-2) | GI50 (UACC-257) | GI50 (NCI-H522) | GI50 (SK-MEL-28) | GI50 (SK-OV-3) | GI50 (U-251) | GI50 (A498) | GI50 (HOP-92) | GI50 (MDA-MB-435) | GI50 (Hs-578T) | GI50 (DU-145) | GI50 (BT-549) |
| --- | --- | --- | --- | --- | --- | --- | --- | --- | --- | --- | --- | --- | --- | --- | --- | --- | --- | --- | --- | --- |
| O=C1CSc2cc([N+](=O)[O-])ccc2N1 | > 100 µM (inactive) | > 100 µM (inactive) | > 100 µM (inactive) | > 100 µM (inactive) | > 100 µM (inactive) | > 100 | > 100 µM (inactive) | > 100 µM (inactive) | > 100 µM (inactive) | > 100 µM (inactive) | > 100 µM (inactive) | > 100 µM (inactive) | > 100 µM (inactive) | > 100 µM (inactive) | > 100 µM (inactive) | – | – | – | – | – |
| COC(=O)C1CCC2(C)[C@H](CCC3O[C@]32C)[C@@]1(C)CC(=O)c1ccoc1 (some centres not stated) | 88.5 µM (inactive) | > 100 µM (inactive) | 28.3 µM (inactive) | 18.7 µM (inactive) | > 100 µM (inactive) | 81.1 | > 100 µM (inactive) | 46.1 µM (inactive) | – | > 100 µM (inactive) | 21.2 µM (inactive) | > 100 µM (inactive) | 0.0406 µM (active) | 36.6 µM (inactive) | 43 µM (inactive) | – | – | – | – | – |
| C[C@H](C(=O)O)C(=O)NC(=O)N(Cc1ccccc1)N=O | > 100 µM (inactive) | > 100 µM (inactive) | > 100 µM (inactive) | > 100 µM (inactive) | > 100 µM (inactive) | > 100 | > 100 µM (inactive) | > 100 µM (inactive) | > 100 µM (inactive) | > 100 µM (inactive) | – | > 100 µM (inactive) | > 100 µM (inactive) | > 100 µM (inactive) | > 100 µM (inactive) | – | – | – | – | – |
| CCC(=O)c1c(NOC2OCC(OC(C)=O)C(OC(C)=O)C2OC(C)=O)nc(OC)n(C)c1=O (configuration not stated) | > 100 µM (inactive) | > 100 µM (inactive) | > 100 µM (inactive) | > 100 µM (inactive) | > 100 µM (inactive) | > 100 | > 100 µM (inactive) | > 100 µM (inactive) | – | > 100 µM (inactive) | – | > 100 µM (inactive) | > 100 µM (inactive) | > 100 µM (inactive) | > 100 µM (inactive) | > 100 µM (inactive) | – | – | – | – |
| C[C@]12CC[C@@H]3c4ccc(OP(=O)(O)O)cc4CC[C@H]3[C@@H]1CCC2=O | 66.2 µM (inactive) | 70.1 µM (inactive) | 54 µM (inactive) | 42.8 µM (inactive) | > 100 µM (inactive) | > 100 | > 100 µM (inactive) | – | 62.5 µM (inactive) | > 100 µM (inactive) | 33.4 µM (inactive) | > 100 µM (inactive) | > 100 µM (inactive) | 93.3 µM (inactive) | > 100 µM (inactive) | > 100 µM (inactive) | 67.5 µM (inactive) | 41.3 µM (inactive) | > 100 µM (inactive) | 67.6 µM (inactive) |
| CCN(CC)CC(=O)NC1c2ccccc2Oc2c(C)cccc21 (configuration not stated) | > 100 µM (inactive) | > 100 µM (inactive) | 62.7 µM (inactive) | > 100 µM (inactive) | > 100 µM (inactive) | > 100 | > 100 µM (inactive) | > 100 µM (inactive) | – | > 100 µM (inactive) | – | > 100 µM (inactive) | > 100 µM (inactive) | – | – | – | – | – | – | – |
| COc1ccc(N2N=NN(C(C)C)/C2=C(/Cl)c2nnnn2-c2ccc(OC)cc2)cc1 | 14.4 µM (inactive) | 14.3 µM (inactive) | 4.61 µM (inactive) | 18.2 µM (inactive) | 13.6 µM (inactive) | 15.8 | 2.76 µM (inactive) | – | 13.4 µM (inactive) | 15.3 µM (inactive) | 2.76 µM (inactive) | 15.5 µM (inactive) | 18.2 µM (inactive) | 17.5 µM (inactive) | 16 µM (inactive) | 2.25 µM (inactive) | 12.6 µM (inactive) | 22.1 µM (inactive) | 8.11 µM (inactive) | 15.6 µM (inactive) |
| O=C1C2C(C(=O)N1c1ccccc1)C1(c3ccccc3)OC2(c2ccccc2)c2ccccc21 (configuration not stated) | > 100 µM (inactive) | > 100 µM (inactive) | > 100 µM (inactive) | > 100 µM (inactive) | 4.14 µM (inactive) | > 100 | > 100 µM (inactive) | > 100 µM (inactive) | > 100 µM (inactive) | > 100 µM (inactive) | 30.6 µM (inactive) | > 100 µM (inactive) | > 100 µM (inactive) | > 100 µM (inactive) | – | 1.93 µM (inactive) | – | – | – | – |
| COC(=O)c1cc2cc3c(c(O)c2c(=O)o1)O[C@@]1(Oc2c(O)c4c(c(O)c2[C@H]1OC1CC(OC)C(O)C(C)O1)C(=O)C=C(OC)C4=O)[C@H](O)C3 (some centres not stated) | 0.55 µM (active) | 1.3 µM (inactive) | 0.748 µM (active) | 1.74 µM (inactive) | 1.84 µM (inactive) | 0.908 | 0.991 µM (active) | – | 1.53 µM (inactive) | 2 µM (inactive) | 2.09 µM (inactive) | 0.659 µM (active) | 1.85 µM (inactive) | 0.785 µM (active) | 0.789 µM (active) | 2.41 µM (inactive) | 1.09 µM (active) | 1.17 µM (inactive) | 0.822 µM (active) | 1.3 µM (inactive) |
| COC(=O)C1CC(=O)O[C@H]1c1ccc(OC)c(OC)c1 (some centres not stated) | > 100 µM (inactive) | > 100 µM (inactive) | > 100 µM (inactive) | > 100 µM (inactive) | > 100 µM (inactive) | > 100 | > 100 µM (inactive) | > 100 µM (inactive) | > 100 µM (inactive) | > 100 µM (inactive) | – | > 100 µM (inactive) | > 100 µM (inactive) | > 100 µM (inactive) | > 100 µM (inactive) | > 100 µM (inactive) | – | – | – | – |
| CN(C(=O)C12C3C4C1C1C2C3C41C(=O)C(C)(C)C)C(C)(C)C (configuration not stated) | > 100 µM (inactive) | > 100 µM (inactive) | > 100 µM (inactive) | > 100 µM (inactive) | > 100 µM (inactive) | – | > 100 µM (inactive) | > 100 µM (inactive) | > 100 µM (inactive) | > 100 µM (inactive) | 22 µM (inactive) | > 100 µM (inactive) | > 100 µM (inactive) | > 100 µM (inactive) | > 100 µM (inactive) | – | – | – | – | – |
| O=S(O)CCCCSSCCCCS(=O)(=O)S | 18 µM (inactive) | 71 µM (inactive) | 2 µM (inactive) | 19.4 µM (inactive) | > 100 µM (inactive) | 59 | > 100 µM (inactive) | 39.4 µM (inactive) | 35.7 µM (inactive) | 21.1 µM (inactive) | 19.3 µM (inactive) | 27 µM (inactive) | > 100 µM (inactive) | > 100 µM (inactive) | > 100 µM (inactive) | – | – | – | – | – |
| CCN1CCCCC(=N\O)/C(=N/O)CCCC1 | > 100 µM (inactive) | > 100 µM (inactive) | > 100 µM (inactive) | 26.1 µM (inactive) | > 100 µM (inactive) | > 100 | > 100 µM (inactive) | – | > 100 µM (inactive) | > 100 µM (inactive) | > 100 µM (inactive) | > 100 µM (inactive) | > 100 µM (inactive) | > 100 µM (inactive) | > 100 µM (inactive) | > 100 µM (inactive) | > 100 µM (inactive) | > 100 µM (inactive) | > 100 µM (inactive) | > 100 µM (inactive) |
| COc1cc2cc3c4c(cc(OC)c(OC)c4c2cc1OC)CCN3 | 5.61 µM (inactive) | 46.7 µM (inactive) | 35.3 µM (inactive) | 6.53 µM (inactive) | – | 32.9 | 48.4 µM (inactive) | 36 µM (inactive) | 22.1 µM (inactive) | 58.6 µM (inactive) | 31.3 µM (inactive) | 69.8 µM (inactive) | > 100 µM (inactive) | > 100 µM (inactive) | – | 20.8 µM (inactive) | – | – | – | – |
| N#CC12Cc3ccc4c(c3-c3cccc(c31)CCN2C(=O)c1ccccc1)OCO4 (configuration not stated) | > 100 µM (inactive) | > 100 µM (inactive) | > 100 µM (inactive) | > 100 µM (inactive) | > 100 µM (inactive) | > 100 | 71.6 µM (inactive) | > 100 µM (inactive) | – | > 100 µM (inactive) | > 10 µM (inactive) | > 100 µM (inactive) | > 100 µM (inactive) | > 100 µM (inactive) | 68.4 µM (inactive) | 36.2 µM (inactive) | – | – | – | – |
| C[n+]1c2ccccc2n2c3ccccc3c(NCc3ccco3)c(C#N)c21 | 2.84 µM (inactive) | 1.23 µM (inactive) | 0.984 µM (active) | 2.78 µM (inactive) | 2.12 µM (inactive) | 1.05 | 1.51 µM (inactive) | – | 2 µM (inactive) | 3.48 µM (inactive) | 0.678 µM (active) | 1.99 µM (inactive) | 3.85 µM (inactive) | 2 µM (inactive) | 6.08 µM (inactive) | 5.94 µM (inactive) | 1.76 µM (inactive) | 2.96 µM (inactive) | 3.09 µM (inactive) | 18.5 µM (inactive) |
| COC(=O)CC(C(C(C)=O)C(=O)OCc1ccccc1)N1C(=O)OCC1c1ccccc1 (configuration not stated) | 44.2 µM (inactive) | > 100 µM (inactive) | 45.9 µM (inactive) | > 100 µM (inactive) | – | > 100 | > 100 µM (inactive) | 52 µM (inactive) | > 100 µM (inactive) | 93.5 µM (inactive) | – | > 100 µM (inactive) | – | 65.2 µM (inactive) | 67.9 µM (inactive) | – | – | – | – | – |
| Nc1nc(SCc2ccccc2)c2ncn(Cc3ccccc3)c2n1 | > 83 µM (inactive) | > 100 µM (inactive) | > 100 µM (inactive) | > 100 µM (inactive) | > 100 µM (inactive) | > 81.3 | > 100 µM (inactive) | – | > 58.1 µM (inactive) | > 71 µM (inactive) | > 60.4 µM (inactive) | > 100 µM (inactive) | > 100 µM (inactive) | > 100 µM (inactive) | > 44.9 µM (inactive) | > 85.9 µM (inactive) | > 71.8 µM (inactive) | > 100 µM (inactive) | > 100 µM (inactive) | > 100 µM (inactive) |
